Measurements taken from ChEMBL document CHEMBL1765041, “An unprecedented neolignan skeleton from Chimarrhis turbinata” (J Nat Prod, 2011).

System: Radical scavenging activity
Test: Antioxidant activity assessed as DPPH free radical scavenging activity after 30 mins in dark by spectrophotometry
Assay type: functional

SMILES	IC50 [µM]
COC(=O)C1(O)C[C@@H](O)[C@@H](O)[C@H](OC(=O)/C=C/c2ccc(O)c(O)c2)C1 (stereo not given in full)	18.6
Cc1cc(C(C)(C)C)c(O)c(C(C)(C)C)c1 [BUTYLATED HYDROXYTOLUENE]	62.5
O=C(/C=C/c1ccc(O)c(O)c1)O[C@@H]1C[C@](O)(C(=O)O)C[C@@H](O)[C@H]1O [CHLOROGENIC ACID]	20

Further compounds by falling IC50, results first:

IC50 [µM]	SMILES
18.5	COC(=O)C1(O)C[C@@H](O)[C@@H](O)[C@H](OC(=O)/C=C\c2ccc(O)c(O)c2)C1 (stereo not given in full)
7.5	O=C(O[C@H]1[C@H]([C@@]2(c3ccc(O)c(O)c3)CC[C@H](Cc3ccc(O)c(O)c3)C(=O)O2)OC[C@@H]1O)c1cc(O)cc(O)c1 [CHIMARRHININ]
